Measured values as given in patent publication US10077288B2, “Hydroxystatin derivatives for the treatment of arthrosis” (Merck Patent GmbH, priority 2012, dated 2018).

Tests used:
[1] = biological target: T1, cathepsin D isolated from the human liver (Homo sapiens, UniProt P07339); assay: In-vitro fluorescence assay for identification of cathepsin D inhibitors; type: biochemical; conditions: human liver cathepsin D 1.4 nM, pH 5.5; read-out: CatD assay IC50-(M)
T1 construct: cathepsin D isolated from the human liver (Sigma-Aldrich); purchased Sigma-Aldrich; host or cells: human liver (tissue-derived, not recombinant)
T1 sequence (P07339 65-161 limits assumed): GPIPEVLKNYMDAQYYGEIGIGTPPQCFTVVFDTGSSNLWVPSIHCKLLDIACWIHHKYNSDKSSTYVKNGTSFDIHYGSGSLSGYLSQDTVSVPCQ
T1 sequence (P07339 169-412 limits assumed): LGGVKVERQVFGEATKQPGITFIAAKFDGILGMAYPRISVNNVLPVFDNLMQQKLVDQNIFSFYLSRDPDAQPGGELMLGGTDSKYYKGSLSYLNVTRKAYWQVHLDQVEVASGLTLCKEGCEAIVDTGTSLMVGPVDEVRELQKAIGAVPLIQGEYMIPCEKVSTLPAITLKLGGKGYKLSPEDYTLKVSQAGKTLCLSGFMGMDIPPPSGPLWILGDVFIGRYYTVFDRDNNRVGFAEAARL
Experimental: EXAMPLE 4: IN-VITRO FLUORESCENCE ASSAY FOR IDENTIFICATION OF CATHEPSIN D INHIBITORS
In order to identify modulators of cathepsin D activity, a continuous enzymatic test was carried out with a synthetic peptide which carries a fluorescent group (MCA=(7-methoxycoumarin-4-yl)acetyl) which is quenched by energy transfer from a Dpn (2,4 dinitrophenyl) group on the same molecule, in Greiner 384-well nb microtitre plates. Cleavage of the peptidic substrate by cathepsin D causes an increase in the fluorescence intensity. In order to determine the efficacy of substances, the time-dependent increase in the fluorescence intensity in the presence of the substance was compared with the time-dependent increase in fluorescence in the absence of substances. The reference substance used was pepstatin A (Sigma-Aldrich). The substrate used was MCA-GKPILFFRLK(Dnp)d-R—NH2 (Enzo Life Sciences, Lörrach). The enzyme employed was cathepsin D isolated from the human liver (Sigma-Aldrich) in a final concentration of 1.4 nM. The test was carried out in 100 mM sodium acetate buffer, 1.25% (v/v) of DMSO, 0.25% (w/v) of Chaps, pH 5.5. 2 μl of each substance solution with serially diluted substance concentration were added to in each case 4 μl of cathepsin D solution and incubated at room temperature for 10 min. The reaction was started by addition of 2 μl of substrate solution (final concentration 5 μM). After carrying out a starting-point fluorescence measurement (excitation wavelength 340 nm/emission wavelength 450 nm) using an Envision multilabel reader (Perkin Elmer), the reaction was incubated at room temperature for 60 min. The amount of peptide fragment cleaved off during the reaction time was subsequently measured by determination of the increase in the fluorescence intensity at 450 nm (excitation wavelength 340 nm).

recombinant human renin = biological target: T2, recombinant human renin (Homo sapiens, UniProt P00797); assay: In-vitro fluorescence assay for identification of renin-inhibitory activity; type: biochemical; conditions: recombinant human renin 10 nM, FRET substrate 5 μM, pH 7.2; read-out: Renin selectivity IC50
T2 construct: purchased Proteos, Kalamazoo, Mich
T2 sequence (P00797 67-406): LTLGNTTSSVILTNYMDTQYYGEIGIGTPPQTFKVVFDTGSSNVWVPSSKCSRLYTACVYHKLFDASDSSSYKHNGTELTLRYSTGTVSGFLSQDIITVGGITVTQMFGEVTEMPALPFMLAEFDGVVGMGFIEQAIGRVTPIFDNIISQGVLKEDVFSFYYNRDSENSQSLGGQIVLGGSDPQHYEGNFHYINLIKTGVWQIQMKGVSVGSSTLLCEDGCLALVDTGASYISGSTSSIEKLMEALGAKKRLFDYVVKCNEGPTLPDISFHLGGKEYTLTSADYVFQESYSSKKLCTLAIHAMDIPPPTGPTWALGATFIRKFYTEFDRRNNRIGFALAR
Experimental: EXAMPLE 8: IN-VITRO FLUORESCENCE ASSAY FOR IDENTIFICATION OF RENIN-INHIBITORY ACTIVITY
In order to identify modulators of renin activity, a continuous enzymatic test was carried out with a synthetic peptide which carries a fluorescent group Edans (=(5-(aminoethyl)aminonaphthalenesulfonate) which is quenched by energy transfer from a Dabcyl (4′-dimethylaminoazobenzene-4-carboxylate) group on the same molecule, in Greiner 384-well microtitre plates. Cleavage of the peptidic substrate by renin causes an increase in the fluorescence intensity. In order to determine the efficacy of substances, the time-dependent increase in the fluorescence intensity in the presence of the substance was compared with the time-dependent increase in fluorescence in the absence of substances. The reference substance used was renin inhibitor 2 (Z-Arg-Arg-Pro-Phe-His-Sta-Ile-His N-Boc-Lys methyl ester Z) (Sigma-Aldrich). The substrate used was renin FRET substrate I (DABCYL-g-Abu-Ile-His-Pro-Phe-His-Leu-Val-Ile-His-Thr-EDANS) (Anaspec, Fremont Calif.). The enzyme employed was recombinant human renin (Pro-teos, Kalamazoo, Mich.) in a final concentration of 10 nM. The test was carried out in 50 mM Mops buffer, 1.5% (v/v) of DMSO, 0.1% (w/v) of Igepal®, pH 7.2, 0.5% (w/v) of BSA. 2 μl of each substance solution with serially diluted substance concentration were added to in each case 4 μl of renin solution and incubated at room temperature for 15 min. The reaction was started by addition of 4 μl of substrate solution (final concentration 5 μM). After carrying out a starting-point fluorescence measurement (excitation wavelength 340 nm/emission wavelength 495 nm) using an Envision multilabel reader (Perkin Elmer), the reaction was incubated at 37° C. for 60 min. The amount of peptide fragment cleaved off during the reaction time was subsequently measured by determination of the increase in the fluorescence intensity at 495 nm (excitation wavelength 340 nm).
Result: all compounds measured have an IC50 of the renin selectivity of >30 μM (see Table 2 in Example 1).

Row | IC50 [1] [M] | IC50 (recombinant human renin) [nM] | Structure (SMILES)
1 | 3.9e-08 | > 30000 | CC[C@H](C)[C@H](NC(=O)C[C@H](O)[C@H](Cc1ccccc1)NC(=O)[C@@H](NC(=O)Cc1ccc(OC)cc1)C(C)C)C(=O)N[C@H](C(=O)O)C(C)C [Compound 15, (S)-2-[(2S,3S)-2-((3S,4S)-3-hydroxy-4-{(S)-2-[2-(4-methoxyphenyl)-acetylamino]-3-methylbutyrylamino}-5-phenylpentanoylamino)-3-methylpentanoylamino]-3-methylbutyric acid]
2 | 2.3e-07 | > 30000 | CC[C@H](C)[C@H](NC(=O)C[C@H](O)[C@H](Cc1ccccc1)NC(=O)[C@@H](NC(=O)C(C)(C)Oc1ccc2ccccc2c1)C(C)C)C(=O)N[C@H](C(=O)OCc1ccccc1)C(C)C [Compound 3, benzly (S)-2-[(2S,3S)-2-((3S,4S)-3-hydroxy-4-{(S)-3-methyl-2-[2-methyl-2-(naphthalen-2-yloxy)propionylamino]butyrylamino}-5-phenylpentanoylamino)-3-methylpentanoylamino]-3-methylbutyrate]
3 | 7.9e-08 | > 30000 | CC[C@H](C)[C@H](NC(=O)C[C@H](O)[C@H](Cc1ccccc1)NC(=O)[C@@H](NC(=O)CCc1ccccc1)C(C)C)C(=O)N[C@H](C(=O)OCc1ccccc1)C(C)C [Compound 1, benzly (S)-2-((2S,3S)-2-{(3S,4S)-3-hydroxy-4-[(S)-3-methyl-2-(3-phenylpropionylamino)butyrylamino]-5-phenylpentanoylamino}-3-methylpentanoylamino)-3-methylbutyrate]
4 | 1.6e-07 | > 30000 | CC[C@H](C)[C@H](NC(=O)C[C@H](O)[C@H](Cc1ccccc1)NC(=O)[C@@H](NC(=O)Cc1ccccc1OC)C(C)C)C(=O)N[C@H](C(=O)O)C(C)C [Compound 28, (S)-2-[(2S,3S)-2-((3S,4S)-3-hydroxy-4-{(S)-2-[2-(2-methoxyphenyl)-acetylamino]-3-methylbutyrylamino}-5-phenylpentanoylamino)-3-methylpentanoylamino]-3-methylbutyric acid]
5 | 2.5e-08 | – | CC[C@H](C)[C@H](NC(=O)C[C@H](O)[C@H](Cc1ccccc1)NC(=O)[C@@H](NC(=O)Cc1cccc(OC)c1)C(C)C)C(=O)N[C@H](C(=O)OCc1ccccc1)C(C)C [Compound 13, benzly (S)-2-[(2S,3S)-2-((3S,4S)-3-hydroxy-4-{(S)-2-[2-(3-methoxy-phenyl)acetylamino]-3-methylbutyrylamino}-5-phenylpentanoylamino)-3-methylpentanoylamino]-3-methylbutyrate]
6 | 1.2e-06 | – | CC[C@H](C)[C@H](NC(=O)C[C@H](O)[C@H](Cc1ccccc1)NC(=O)[C@@H](NC(=O)Cc1cccc2ccccc12)C(C)C)C(=O)N[C@H](C(=O)OCc1ccccc1)C(C)C [Compound 21, benzly (S)-2-((2S,3S)-2-{(3S,4S)-3-hydroxy-4-[(S)-3-methyl-2-(2-naphthalen-1-ylacetylamino)butyrylamino]-5-phenylpentanoylamino}-3-methylpentanoylamino)-3-methylbutyrate]
7 | 3.5e-07 | – | CC[C@H](C)[C@H](NC(=O)C[C@H](O)[C@H](Cc1ccccc1)NC(=O)[C@@H](NC(=O)COc1ccc2ccccc2c1)C(C)C)C(=O)N[C@H](C(=O)OCc1ccccc1)C(C)C [Compound 7]
8 | 4.3e-08 | – | CCOc1cccc(CC(=O)N[C@H](C(=O)N[C@@H](Cc2ccccc2)[C@@H](O)CC(=O)N[C@H](C(=O)N[C@H](C(=O)O)C(C)C)[C@@H](C)CC)[C@@H](C)CC)c1 [Compound 36, (S)-2-[(2S,3S)-2-((3S,4S)-3-hydroxy-4-{(S)-methyl-1-(S)-2-[2-(3-ethoxyphenyl)acetylamino]-3-oxopentylamino}-5-phenylpentanoylamino)-3-methylpentanoylamino]-3-methylbutyric acid]
